Laboratory results as given in ChEMBL document CHEMBL1201862, “PubChem BioAssay data set” (2004).
Activity calls are given as the source filed them.

Experiments:
Beta-lactamase [1] = molecular target: Beta-lactamase (Salmonella choleraesuis (strain SC-B67), UniProt Q5J463); assay: Epi-absorbance-based counterscreen for selective VIM-2 inhibitors: dose response biochemical high throughput screening assay to identify inhibitors of TEM-1 serine-beta-lactamase.
Beta-lactamase [2] = molecular target: T1, Beta-lactamase (Pseudomonas aeruginosa, UniProt Q79MP6); assay: inhibition of IMP-1 beta-lactamase activity – biochemical, epi-absorbance, selectivity assay for VIM-2 inhibitor project, dose response (AID 1920)
T1 sequence (Q79MP6 whole entry): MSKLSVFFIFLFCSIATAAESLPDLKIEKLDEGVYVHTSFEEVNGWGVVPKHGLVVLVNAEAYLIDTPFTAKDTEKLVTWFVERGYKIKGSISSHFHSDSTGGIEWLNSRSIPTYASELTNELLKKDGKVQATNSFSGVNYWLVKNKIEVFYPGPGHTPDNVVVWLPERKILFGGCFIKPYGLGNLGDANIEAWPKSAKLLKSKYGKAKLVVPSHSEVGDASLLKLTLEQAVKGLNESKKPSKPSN

Beta-lactamase [3] = molecular target: T1, Beta-lactamase; assay: […] counterscreen for selective VIM-2 inhibitors: dose response biochemical high throughput screening assay to identify inhibitors of IMP-1 metallo-beta-lactamase.
Estrogen receptor = molecular target: T2, Estrogen receptor (Homo sapiens, UniProt P03372);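 also: potency for inhibiting coactivator peptide recruitment to the receptor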
T2 sequence (P03372 whole entry): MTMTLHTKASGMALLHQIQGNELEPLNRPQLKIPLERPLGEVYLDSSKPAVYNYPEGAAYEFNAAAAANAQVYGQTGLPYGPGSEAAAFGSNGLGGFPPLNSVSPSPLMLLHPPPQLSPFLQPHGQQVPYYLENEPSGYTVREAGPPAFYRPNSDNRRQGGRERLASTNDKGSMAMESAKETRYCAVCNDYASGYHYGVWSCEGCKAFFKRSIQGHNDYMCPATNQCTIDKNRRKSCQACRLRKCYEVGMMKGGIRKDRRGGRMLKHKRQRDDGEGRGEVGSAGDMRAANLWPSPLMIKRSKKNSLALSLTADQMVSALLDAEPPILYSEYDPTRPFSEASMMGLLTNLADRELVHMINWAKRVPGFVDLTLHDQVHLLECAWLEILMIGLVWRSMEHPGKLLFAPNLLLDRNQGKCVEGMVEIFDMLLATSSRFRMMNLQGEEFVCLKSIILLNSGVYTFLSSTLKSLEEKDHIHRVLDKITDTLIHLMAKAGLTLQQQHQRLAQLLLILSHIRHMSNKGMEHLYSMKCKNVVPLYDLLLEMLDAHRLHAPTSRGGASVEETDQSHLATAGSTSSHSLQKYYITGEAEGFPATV

Estrogen receptor beta [4] = molecular target: T3, Estrogen receptor beta (Homo sapiens, UniProt Q92731);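 also: recombinant ER-beta bound to coactivator SRC1 peptide in presence of estradiol agonist; inhibitors block coactivator peptide binding and lower the FRET signal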
T3 sequence (Q92731 whole entry): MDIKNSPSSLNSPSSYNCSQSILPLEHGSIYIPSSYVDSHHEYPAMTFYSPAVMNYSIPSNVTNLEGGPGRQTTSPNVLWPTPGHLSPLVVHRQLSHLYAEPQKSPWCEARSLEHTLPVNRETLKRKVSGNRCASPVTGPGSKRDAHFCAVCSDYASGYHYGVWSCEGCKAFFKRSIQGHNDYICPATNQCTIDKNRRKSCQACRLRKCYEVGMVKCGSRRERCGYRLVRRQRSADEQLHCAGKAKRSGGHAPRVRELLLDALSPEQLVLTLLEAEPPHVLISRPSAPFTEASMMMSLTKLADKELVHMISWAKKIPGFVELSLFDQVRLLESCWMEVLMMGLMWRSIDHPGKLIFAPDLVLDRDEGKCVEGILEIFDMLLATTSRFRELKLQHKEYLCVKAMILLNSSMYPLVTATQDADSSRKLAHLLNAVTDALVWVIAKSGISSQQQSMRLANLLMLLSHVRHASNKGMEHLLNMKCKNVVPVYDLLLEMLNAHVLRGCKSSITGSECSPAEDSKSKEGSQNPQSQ

Estrogen receptor beta [5] = molecular target: T3, Estrogen receptor beta; assay: blockers of SRC-3 recruitment to ERβ – biochemical, ELISA, streptavidin-HRP readout, orthogonal assay, confirmation (AID 1060)
[6] = molecular target: Induced myeloid leukemia cell differentiation protein Mcl-1 (Homo sapiens, UniProt Q07820); format: functional
Chain of Induced myeloid leukemia cell differentiation protein Mcl-1 (Q07820 whole entry): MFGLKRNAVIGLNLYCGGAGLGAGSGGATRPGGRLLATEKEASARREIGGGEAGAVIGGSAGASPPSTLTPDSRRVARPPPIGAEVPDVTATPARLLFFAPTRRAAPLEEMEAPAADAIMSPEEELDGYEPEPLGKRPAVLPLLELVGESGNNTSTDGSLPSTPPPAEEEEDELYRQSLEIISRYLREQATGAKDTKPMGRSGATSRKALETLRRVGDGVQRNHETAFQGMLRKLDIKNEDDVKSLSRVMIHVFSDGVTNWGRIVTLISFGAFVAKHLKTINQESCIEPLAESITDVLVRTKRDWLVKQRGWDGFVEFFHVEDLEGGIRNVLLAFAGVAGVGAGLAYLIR

[7] = molecular target: T4, Sentrin-specific protease 8 (Homo sapiens, UniProt Q96LD8); format: functional;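 also: kinetic enzyme assay of SENP8 cleaving a Nedd8 protein substrate, dose-response confirmation of screening hits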
T4 sequence (Q96LD8 whole entry): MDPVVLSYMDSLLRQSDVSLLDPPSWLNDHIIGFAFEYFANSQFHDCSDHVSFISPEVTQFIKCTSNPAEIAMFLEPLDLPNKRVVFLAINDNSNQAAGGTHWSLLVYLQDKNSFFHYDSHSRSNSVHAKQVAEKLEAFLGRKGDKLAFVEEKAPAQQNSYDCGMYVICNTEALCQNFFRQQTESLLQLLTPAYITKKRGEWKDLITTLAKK

[8] = molecular target: T5, Beta-2 adrenergic receptor (Homo sapiens, UniProt P07550); assay: Dose response for HTS for Beta-2AR agonists via FAP method from Powderset1.; format: functional
T5 sequence (P07550 whole entry): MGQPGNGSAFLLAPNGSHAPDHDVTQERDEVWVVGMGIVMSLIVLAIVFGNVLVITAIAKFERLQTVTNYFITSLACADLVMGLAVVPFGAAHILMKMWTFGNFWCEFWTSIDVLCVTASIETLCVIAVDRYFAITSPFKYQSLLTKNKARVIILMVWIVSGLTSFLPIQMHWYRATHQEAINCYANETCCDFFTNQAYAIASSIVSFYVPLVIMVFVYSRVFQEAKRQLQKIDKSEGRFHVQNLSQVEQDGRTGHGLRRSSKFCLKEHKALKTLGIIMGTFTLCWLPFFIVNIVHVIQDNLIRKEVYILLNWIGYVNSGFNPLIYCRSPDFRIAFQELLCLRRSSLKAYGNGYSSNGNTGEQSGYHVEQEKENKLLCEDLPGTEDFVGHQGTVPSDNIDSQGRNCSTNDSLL

[9] = molecular target: T5, Beta-2 adrenergic receptor; assay: ADRB2 activation measured by internalization – cell-based, FAP fluorogen, flow cytometry, cherry pick 1, dose response (AID 588763); format: functional
[10] = Cytotoxicity Dose Response with AM2.2-beta2AR cells for PowderSet01.; format: functional, cell-based; details: read-out: EC50_MICROM
INS1 = assay: INS-1E survival protection against cytokine death – cell-based, luminescence, retest, dose response (AID 449756); format: functional; details: Rattus norvegicus;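 also: cell death triggered by IL-1 beta plus TNF-alpha plus IFN-gamma mixture; protective hits raise ATP signal compared with cytokine alone wells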
Protein Wnt-3a = Protein Wnt-3a (Mus musculus, UniProt P27467); assay: antagonism of Wnt3a pathway luciferase reporter – Wnt-LIGHT cells, luminescence, selectivity assay for Gli-SUFU antagonist project, dose response (AID 651570); format: functional; details: read-out: IC50_Mean;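 also: Wnt-LIGHT reporter cells stimulated with conditioned medium from Wnt3a-producing cells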
Cytochrome P450 2D6 = Cytochrome P450 2D6 (Homo sapiens, UniProt P10635);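 also: CYP2D6 member of a cytochrome P450 panel assay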
Chain of Cytochrome P450 2D6 (P10635 whole entry): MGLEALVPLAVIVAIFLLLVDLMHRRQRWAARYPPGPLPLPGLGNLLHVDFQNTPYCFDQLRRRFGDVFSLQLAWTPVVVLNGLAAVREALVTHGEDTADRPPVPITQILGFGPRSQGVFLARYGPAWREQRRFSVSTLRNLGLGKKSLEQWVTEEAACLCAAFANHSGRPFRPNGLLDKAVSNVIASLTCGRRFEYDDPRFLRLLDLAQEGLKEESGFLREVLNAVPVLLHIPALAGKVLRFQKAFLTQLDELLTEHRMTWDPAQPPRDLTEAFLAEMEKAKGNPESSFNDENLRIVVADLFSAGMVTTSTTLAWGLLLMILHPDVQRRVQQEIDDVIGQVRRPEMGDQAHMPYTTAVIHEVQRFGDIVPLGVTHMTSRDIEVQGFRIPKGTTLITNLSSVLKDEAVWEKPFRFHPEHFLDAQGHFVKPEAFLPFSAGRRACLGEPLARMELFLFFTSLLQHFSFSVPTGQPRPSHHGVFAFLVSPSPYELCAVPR

Vero = assay: viability loss in Vero cells – cell-based, plate reader, cherry-pick samples, cytotoxicity control, dose response (AID 687020); format: functional; details: Chlorocebus sabaeus
[11] = molecular target: ADP-ribosylation factor GTPase-activating protein 1 (Rattus norvegicus, UniProt Q62848); assay: Fluorescence polarization-based biochemical high throughput dose response screening assay to identify inhibitors of ADP-ribosylation factor GTPase activating protein 1 (ARFGAP1).; format: functional
Chain of ADP-ribosylation factor GTPase-activating protein 1 (Q62848 whole entry): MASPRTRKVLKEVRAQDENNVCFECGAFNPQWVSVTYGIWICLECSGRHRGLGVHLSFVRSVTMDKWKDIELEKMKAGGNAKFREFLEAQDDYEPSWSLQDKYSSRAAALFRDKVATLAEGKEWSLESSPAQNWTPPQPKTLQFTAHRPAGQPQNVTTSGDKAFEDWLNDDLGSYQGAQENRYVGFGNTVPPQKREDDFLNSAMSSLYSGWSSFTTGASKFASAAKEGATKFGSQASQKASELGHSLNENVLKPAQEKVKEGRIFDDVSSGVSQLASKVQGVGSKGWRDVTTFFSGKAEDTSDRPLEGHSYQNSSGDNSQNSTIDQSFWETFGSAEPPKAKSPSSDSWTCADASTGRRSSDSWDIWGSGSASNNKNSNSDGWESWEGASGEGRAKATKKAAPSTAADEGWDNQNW

[12] = system: Streptococcus sp. 'group A'; assay: Streptococcus pyogenes SK(-)GAS viability under kanamycin – luminescence, BacTiterGlo, confirmation, counter-screen for streptokinase expression inhibitor project, dose response (AID 1900); format: functional, organism-based
Streptokinase A = molecular target: T6, Streptokinase A (Streptococcus pyogenes serotype M1, UniProt P10520); assay: viability-normalized secreted streptokinase activity reduction – plasminogen activation absorbance, OD405, dose response (AID 1914); format: functional, Streptococcus pyogenes M1 GAS;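 also: secreted streptokinase activity via plasminogen activation per viability signal from cell pellet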
T6 sequence (P10520 whole entry): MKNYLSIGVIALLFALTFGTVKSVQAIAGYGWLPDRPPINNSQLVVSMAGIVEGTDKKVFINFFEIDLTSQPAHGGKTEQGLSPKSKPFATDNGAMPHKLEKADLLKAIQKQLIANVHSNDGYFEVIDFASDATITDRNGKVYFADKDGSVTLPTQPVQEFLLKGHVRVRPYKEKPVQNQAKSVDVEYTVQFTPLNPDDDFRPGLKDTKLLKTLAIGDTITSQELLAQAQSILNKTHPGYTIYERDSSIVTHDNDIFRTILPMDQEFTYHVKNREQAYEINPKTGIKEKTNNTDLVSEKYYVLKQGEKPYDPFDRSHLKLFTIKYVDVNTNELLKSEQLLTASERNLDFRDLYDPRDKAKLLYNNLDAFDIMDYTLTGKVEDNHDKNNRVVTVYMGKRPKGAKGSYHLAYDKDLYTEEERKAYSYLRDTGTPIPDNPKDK

Streptococcus = assay: GAS UMAA2166 growth inhibition – luminescence, BacTiterGlo, counter-screen for streptokinase expression inhibitor project, dose response (AID 1915); format: functional, organism-based;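 also: potency for reduction of bacterial viability or growth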
Cytochrome P450 2C19 = Cytochrome P450 2C19 (Homo sapiens, UniProt P33261); assay: Cytochrome panel assay with activity outcomes. Panel member name: p450-cyp2c19 Compounds with AC50 equal or less than 10 uM are considered active; format: functional; details: read-out: AC50
[13] = molecular target: Potassium voltage-gated channel subfamily KQT member 2 (Rattus norvegicus, UniProt O88943); assay: blockers of KCNQ2 channel current – cell-based, automated electrophysiology, set II, rat KCNQ2, dose response (AID 588637); format: functional
Cytochrome P450 1A2 = molecular target: T7, Cytochrome P450 1A2 (Homo sapiens, UniProt P05177);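 also: PubChem cytochrome P450 panel assay, CYP1A2 panel member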
T7 sequence (P05177 whole entry): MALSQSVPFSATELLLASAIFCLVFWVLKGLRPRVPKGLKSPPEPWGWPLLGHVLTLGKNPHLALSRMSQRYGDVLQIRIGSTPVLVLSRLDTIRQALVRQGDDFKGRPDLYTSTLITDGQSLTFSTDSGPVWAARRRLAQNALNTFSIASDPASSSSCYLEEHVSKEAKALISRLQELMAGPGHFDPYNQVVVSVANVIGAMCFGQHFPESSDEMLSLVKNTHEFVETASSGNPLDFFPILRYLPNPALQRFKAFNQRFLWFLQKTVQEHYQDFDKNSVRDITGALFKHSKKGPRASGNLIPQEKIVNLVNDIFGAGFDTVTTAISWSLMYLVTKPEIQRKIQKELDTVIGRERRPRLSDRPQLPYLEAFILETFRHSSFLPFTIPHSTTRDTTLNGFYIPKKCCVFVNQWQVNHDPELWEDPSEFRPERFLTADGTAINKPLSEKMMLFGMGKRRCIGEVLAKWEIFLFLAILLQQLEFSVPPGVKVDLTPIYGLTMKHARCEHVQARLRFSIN

Cytochrome P450 2C9 = Cytochrome P450 2C9 (Homo sapiens, UniProt P11712)
[14] = molecular target: T8, Methionyl-tRNA synthetase, putative (Trypanosoma brucei brucei, UniProt Q38C91); format: functional, Trypanosoma brucei brucei strain 927/4 GUTat10.1
T8 sequence (Q38C91 whole entry): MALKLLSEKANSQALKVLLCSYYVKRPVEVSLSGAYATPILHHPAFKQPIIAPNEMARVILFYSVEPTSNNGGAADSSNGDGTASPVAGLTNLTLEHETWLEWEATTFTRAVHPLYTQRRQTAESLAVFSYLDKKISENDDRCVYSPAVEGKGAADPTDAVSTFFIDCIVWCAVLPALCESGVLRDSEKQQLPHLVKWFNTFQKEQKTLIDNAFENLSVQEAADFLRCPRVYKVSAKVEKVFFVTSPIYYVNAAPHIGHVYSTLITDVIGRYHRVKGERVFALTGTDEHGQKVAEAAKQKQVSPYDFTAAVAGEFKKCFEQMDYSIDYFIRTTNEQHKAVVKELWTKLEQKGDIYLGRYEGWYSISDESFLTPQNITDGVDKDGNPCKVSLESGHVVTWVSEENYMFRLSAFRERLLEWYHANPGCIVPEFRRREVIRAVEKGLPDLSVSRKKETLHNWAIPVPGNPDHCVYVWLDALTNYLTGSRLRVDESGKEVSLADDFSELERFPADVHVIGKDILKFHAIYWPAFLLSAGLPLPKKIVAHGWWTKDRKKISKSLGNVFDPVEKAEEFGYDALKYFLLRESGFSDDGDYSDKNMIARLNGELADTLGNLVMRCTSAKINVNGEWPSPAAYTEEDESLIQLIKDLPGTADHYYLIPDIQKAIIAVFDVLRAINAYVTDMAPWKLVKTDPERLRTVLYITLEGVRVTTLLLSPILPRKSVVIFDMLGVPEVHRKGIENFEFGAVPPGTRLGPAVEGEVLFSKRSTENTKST

[15] = Counterscreen for inhibitors of Trypanosoma brucei methionyl tRNA synthetase (MetRS): Luminescence-based cell-based high throughput dose response assay to identify compounds that are cytotoxic to Jurkat human T lymphocyte cells.; format: functional
[16] = molecular target: T8, Methionyl-tRNA synthetase, putative; format: functional, Trypanosoma brucei brucei strain 927/4 GUTat10.1; remark: listed apart in the source
[17] = molecular target: Long-chain-fatty-acid--AMP ligase FadD28 (Mycobacterium tuberculosis, UniProt P9WQ59); assay: Fluorescence polarization aasay to screen for inhibitors that compete for the binding of FadD28 to a bisubstrate Measured in Biochemical System Using Plate Reader - 2147-01_Inhibitor_Dose_CherryPick_Activity.; format: functional, Mycobacterium tuberculosis H37Rv
[18] = molecular target: T9, Corticotropin-releasing factor receptor 2/Corticotropin-releasing factor-binding protein (Homo sapiens, UniProt P24387+Q13324); assay: Dose Response confirmation of uHTS hits for small molecule antagonists of the CRF-binding protein and CRF-R2 receptor complex.; format: functional; details: read-out: IC50_Mean
T9 sequence (Q13324 whole entry): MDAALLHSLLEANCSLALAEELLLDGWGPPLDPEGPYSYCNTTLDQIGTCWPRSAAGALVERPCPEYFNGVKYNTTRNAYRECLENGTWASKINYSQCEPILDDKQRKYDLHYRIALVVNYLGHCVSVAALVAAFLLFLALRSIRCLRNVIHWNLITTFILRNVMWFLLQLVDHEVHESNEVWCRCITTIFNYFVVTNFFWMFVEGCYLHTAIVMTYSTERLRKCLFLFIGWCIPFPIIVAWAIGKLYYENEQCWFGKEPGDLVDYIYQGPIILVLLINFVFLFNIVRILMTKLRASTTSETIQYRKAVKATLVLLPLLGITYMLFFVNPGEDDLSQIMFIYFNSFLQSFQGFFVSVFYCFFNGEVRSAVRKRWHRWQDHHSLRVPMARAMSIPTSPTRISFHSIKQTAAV
T9 sequence (P24387 whole entry): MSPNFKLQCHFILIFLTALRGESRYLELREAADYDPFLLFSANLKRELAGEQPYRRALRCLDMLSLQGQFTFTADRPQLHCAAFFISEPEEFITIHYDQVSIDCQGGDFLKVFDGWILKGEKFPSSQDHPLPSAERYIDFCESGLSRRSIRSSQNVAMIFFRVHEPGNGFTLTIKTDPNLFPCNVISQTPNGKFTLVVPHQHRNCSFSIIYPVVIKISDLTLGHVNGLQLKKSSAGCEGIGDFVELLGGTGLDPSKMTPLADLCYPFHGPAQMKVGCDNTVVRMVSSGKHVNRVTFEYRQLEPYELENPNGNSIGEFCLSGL

[19] = molecular target: T9, Corticotropin-releasing factor receptor 2/Corticotropin-releasing factor-binding protein; assay: activators of CRF receptor 2 with binding protein – uHTS hits, confirmation (AID 602473); format: functional; details: read-out: EC50_Mean
[20] = blockers of CRF-binding protein–CRF-R2 complex – cell-based, uHTS hits, 384-well, dose response (AID 651639); format: functional, Homo sapiens; details: read-out: IC50_Mean
[21] = molecular target: Transitional endoplasmic reticulum ATPase (Homo sapiens, UniProt P55072, C522A); assay: C522A mutant p97 ATPase inhibitors, dose response, counter-screen for p97 inhibitor project, biochemical, luminescence (AID 1544)
Chain of Transitional endoplasmic reticulum ATPase (Homo sapiens, UniProt P55072, C522A) (P55072 2-806 C522A limits assumed): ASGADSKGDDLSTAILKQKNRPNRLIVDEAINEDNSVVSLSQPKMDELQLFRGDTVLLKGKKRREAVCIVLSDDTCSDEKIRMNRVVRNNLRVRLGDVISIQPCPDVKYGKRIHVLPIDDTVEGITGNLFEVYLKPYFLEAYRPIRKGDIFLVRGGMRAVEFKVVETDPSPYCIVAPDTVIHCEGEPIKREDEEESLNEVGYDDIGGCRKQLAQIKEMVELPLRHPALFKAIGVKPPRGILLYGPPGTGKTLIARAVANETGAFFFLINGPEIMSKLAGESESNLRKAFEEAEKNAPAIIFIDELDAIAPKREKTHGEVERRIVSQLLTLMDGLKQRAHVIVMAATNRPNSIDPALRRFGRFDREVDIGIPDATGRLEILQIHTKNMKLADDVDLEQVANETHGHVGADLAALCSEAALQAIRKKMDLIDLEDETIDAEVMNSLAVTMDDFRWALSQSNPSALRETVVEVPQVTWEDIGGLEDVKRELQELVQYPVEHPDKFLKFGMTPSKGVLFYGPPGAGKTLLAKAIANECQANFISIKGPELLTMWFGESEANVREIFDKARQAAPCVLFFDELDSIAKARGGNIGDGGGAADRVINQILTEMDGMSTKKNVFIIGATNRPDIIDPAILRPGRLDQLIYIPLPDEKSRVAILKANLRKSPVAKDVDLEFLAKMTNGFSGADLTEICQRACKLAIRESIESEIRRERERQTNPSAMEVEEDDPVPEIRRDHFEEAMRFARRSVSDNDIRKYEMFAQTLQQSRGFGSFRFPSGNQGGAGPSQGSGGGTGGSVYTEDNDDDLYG

[22] = molecular target: Transitional endoplasmic reticulum ATPase (Homo sapiens, UniProt P55072); assay: p97 ATPase inhibitors, dose response, biochemical (AID 1534)
[23] = Luminescence Cell-Based Dose Retest to Confirm Inhibitors of Cancer Stem Cells. [Related pubchem assays (depositor defined):AID2717, AID2721]; format: functional; details: Homo sapiens
[24] = molecular target: T10, Sentrin-specific protease 1 (Homo sapiens, UniProt Q9P0U3); assay: SENP1 catalytic domain blockers, concentration series – biochemical, kinetic FRET, dose response (AID 651697); format: functional; details: read-out: IC50_Mean
T10 sequence (Q9P0U3 whole entry, the tested form may be a part): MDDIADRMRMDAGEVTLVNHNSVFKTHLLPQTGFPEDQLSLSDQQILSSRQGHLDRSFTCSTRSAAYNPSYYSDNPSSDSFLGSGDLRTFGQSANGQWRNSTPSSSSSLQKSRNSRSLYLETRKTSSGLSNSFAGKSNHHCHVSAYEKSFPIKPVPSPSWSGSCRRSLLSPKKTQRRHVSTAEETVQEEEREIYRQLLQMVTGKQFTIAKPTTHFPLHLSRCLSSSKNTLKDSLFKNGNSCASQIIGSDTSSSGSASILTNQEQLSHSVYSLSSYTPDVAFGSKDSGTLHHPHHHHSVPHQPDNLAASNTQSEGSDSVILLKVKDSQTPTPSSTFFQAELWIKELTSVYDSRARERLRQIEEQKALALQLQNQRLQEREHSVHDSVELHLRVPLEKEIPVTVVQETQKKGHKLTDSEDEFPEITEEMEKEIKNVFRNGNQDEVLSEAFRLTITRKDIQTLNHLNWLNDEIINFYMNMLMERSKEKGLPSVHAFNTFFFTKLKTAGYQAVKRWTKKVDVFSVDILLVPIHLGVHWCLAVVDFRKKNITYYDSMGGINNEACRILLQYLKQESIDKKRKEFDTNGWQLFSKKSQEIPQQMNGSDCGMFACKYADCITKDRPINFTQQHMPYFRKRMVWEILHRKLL

[25] = molecular target: T10, Sentrin-specific protease 1; assay: Dose response confirmation of small molecule inhibitors of the catalytic domain of the SUMO protease, SENP1 in a FRET assay.; format: functional; details: read-out: IC50_Mean

Chain of Beta-lactamase (Salmonella choleraesuis (strain SC-B67), UniProt Q5J463) (Q5J463 whole entry): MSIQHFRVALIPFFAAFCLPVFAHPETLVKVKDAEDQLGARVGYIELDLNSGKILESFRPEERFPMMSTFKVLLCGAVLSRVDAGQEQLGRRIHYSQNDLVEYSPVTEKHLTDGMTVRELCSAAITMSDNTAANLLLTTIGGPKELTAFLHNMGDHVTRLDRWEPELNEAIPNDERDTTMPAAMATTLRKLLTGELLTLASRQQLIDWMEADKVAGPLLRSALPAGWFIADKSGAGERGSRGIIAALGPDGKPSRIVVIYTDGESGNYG

Sc1nnc(-c2ccco2)n1-c1cccc2ccccc12
IC50 (Beta-lactamase [1]): > 59.6 µM (inactive)
IC50 (Beta-lactamase [2]): > 59.6 µM (inactive)
IC50 (Beta-lactamase [3]): > 59.6 µM (inactive)

CC1=C(SCCC#N)S/C(=C2\SC(C)=C(SCCC#N)S2)S1
IC50 (Estrogen receptor): 5.1 µM (active)
IC50 (Estrogen receptor beta [4]): > 50 µM (not active)
IC50 (Estrogen receptor beta [5]): 0.129 µM (not active)
IC50 [6]: 2.89 µM (active)
IC50 [7]: 0.299 µM (active)

CCCCC(=O)Nc1ccc(S(=O)(=O)N2CCCCC2c2cccnc2)cc1 (stereo not given)
EC50 [8]: 0.0322 µM (active)
EC50 [9]: 0.0798 µM (active)
EC50 [10]: 23.3 µM (active)

Cc1cc(/C=N/n2cnnc2)c(C)n1-c1ccc(OCc2ccccc2F)cc1
AC50 (INS1): 3.41 µM (active)
IC50 (Protein Wnt-3a): 6.57 µM (active)
AC50 (Cytochrome P450 2D6): 17.8 µM (inconclusive)

CN1C[C@@H]2[C@@H]3C(=O)N(Cc4ccccc4)C(=O)[C@@H]3[C@](C)(C1=O)N2C(=O)c1ccc(C(C)(C)C)cc1
AC50 (Vero): 24.6 µM (active)

CCOC(=O)N1CCN(C(=O)CSc2nc(=O)n3cc(C)ccc3n2)CC1
IC50 [11]: 53.2 µM (inactive)

O=C(CSc1nc2ccccc2c(=O)n1NC(=O)c1ccccc1)c1ccc(Cl)cc1
EC50 [12]: 7.26 µM (active)
EC50 (Streptokinase A): 106 µM (active)
EC50 (Streptococcus): > 150 µM (not active)
AC50 (Cytochrome P450 2C19): 2.24 µM (inconclusive)
IC50 [13]: 1.53 µM (active)
AC50 (Cytochrome P450 1A2): 6.31 µM (inconclusive)
AC50 (Cytochrome P450 2C9): 1 µM (inconclusive)

O=C(NN1C(=O)/C(=C/c2nc3ccccc3[nH]2)SC1=S)c1ccc(Cl)cc1
IC50 [14]: 119 µM (inactive)
IC50 [15]: 83.3 µM (inactive)
IC50 [16]: 82.6 µM (inactive)
AC50 [17]: 1.13 µM (active)

CCOC(=O)CSC1=C(C#N)C(c2ccc(Cl)cc2)C(C(=O)OC)C(=O)N1 (stereo not given)
IC50 [18]: 26.5 µM (active)
EC50 [19]: > 53 µM (inactive)
IC50 [20]: 9.62 µM (active)

Oc1ccc(Cl)cc1/C=C(\Cl)c1nc(O)c2ccc(Cl)cc2n1
IC50 [21]: > 50 µM (not active)
IC50 [22]: > 50 µM (not active)
AC50 [23]: 1.32 µM (active)
IC50 [24]: 0.654 µM (active)
IC50 [25]: 0.428 µM (active)
